Assay results reported in US7247617B2, “Sixteen-member macrolide antiinfective agents” (Kosan Biosciences Incorporated, priority 2004, dated 2007).

Experiments:
[1] = system: E. faecalis; experiment: Biological activity against bacterial strains: E. faecalis; type: cell-based, Enterococcus faecalis; settings: strain ATCC51575
[2] = system: S. aureus; experiment: Biological activity against bacterial strains: S. aureus; type: cell-based, Staphylococcus aureus; set-up: unit not given here; settings: for Biological Activity, S. aureus ATCC6538p: strain ATCC6538p; for Biological Activity, S. aureus ATCC14154*: strain ATCC14154, macrolide resistant strain; for Biological Activity, S. aureus ATCC29213: strain ATCC29213; for Biological Activity, S. aureus ATCC33591*: strain ATCC33591, macrolide resistant strain; for Biological Activity, S. aureus ATCCBAA-39*: strain ATCCBAA-39, macrolide resistant strain; for Biological Activity, S. aureus ATCCBAA-44*: strain ATCCBAA-44, macrolide resistant strain
[3] = system: S. epidermidis; experiment: Biological activity against bacterial strains: S. epidermidis; type: cell-based, Staphylococcus epidermidis; settings: strain ATCC12228
[4] = system: S. pneumoniae; experiment: Biological activity against bacterial strains: S. pneumoniae; type: cell-based, Streptococcus pneumoniae; set-up: Biological Activity, S. pneumoniae ATCC6301 / Biological Activity, S. pneumoniae ATCC700671 / Biological Activity, S. pneumoniae ATCC700676* / Biological Activity, S. pneumoniae ATCC700677* / Biological Activity, S. pneumoniae ATCC700905* / Biological Activity, S. pneumoniae ATCC700906* / Biological Activity, S. pneumoniae ATCC49619: unit not given here; settings: for Biological Activity, S. pneumoniae ATCC6301: strain ATCC6301; for Biological Activity, S. pneumoniae ATCC49619: strain ATCC49619; for Biological Activity, S. pneumoniae ATCC700671: strain ATCC700671; for Biological Activity, S. pneumoniae ATCC700676*: strain ATCC700676, macrolide resistant strain; for Biological Activity, S. pneumoniae ATCC700677*: strain ATCC700677, macrolide resistant strain; for Biological Activity, S. pneumoniae ATCC700905*: strain ATCC700905, macrolide resistant strain; for Biological Activity, S. pneumoniae ATCC700906*: strain ATCC700906, macrolide resistant strain

SMILES	Biological Activity, E. faecalis ATCC51575 [1]	Biological Activity, S. aureus ATCC6538p [2]	Biological Activity, S. aureus ATCC14154* [2]	Biological Activity, S. aureus ATCC29213 [2]	Biological Activity, S. aureus ATCC33591* [2]	Biological Activity, S. aureus ATCCBAA-39* [2]	Biological Activity, S. aureus ATCCBAA-44* [2]	Biological Activity, S. epidermidis ATCC12228 [3]	Biological Activity, S. pneumoniae ATCC6301 [4]	Biological Activity, S. pneumoniae ATCC49619 [4]	Biological Activity, S. pneumoniae ATCC700671 [4]	Biological Activity, S. pneumoniae ATCC700676* [4]	Biological Activity, S. pneumoniae ATCC700677* [4]	Biological Activity, S. pneumoniae ATCC700905* [4]	Biological Activity, S. pneumoniae ATCC700906* [4]
CCC1OC(=O)CC(O)C(C)C(OC2OC(C)C(O)C(N(C)C)C2O)C(CC=O)CC(C)C(=NOCCCOc2ccc3ncccc3c2)C=CC(C)=CC1COC1OC(C)C(O)C(OC)C1OC (single isomer, unassigned) [Compound AA]	>12.5	0.39	0.78	0.78	>12.5	>12.5	>12.5	0.78	0.025	6.25	>12.5	0.049	6.25	6.25	>12.5
CC[C@H]1OC(=O)C[C@@H](O)[C@H](C)[C@@H](OC2OC(C)C(O)C(N(C)C)C2O)[C@@H](CC=O)C[C@@H](C)C(=N/OCCOc2ccccc2)/C=C/C(C)=C/C1CO (stereo partly drawn) [Compound IIa]	>12.5	0.78	1.56	1.56	>12.5	>12.5	>12.5	1.56	0.20	0.20	0.39	0.20	3.12	0.39	>12.5
CCC1OC(=O)CC(O)C(C)C(OC2OC(C)C(O)C(N(C)C)C2O)C(CCN2CC(C)CC(C)C2)CC(C)C(=NOCCCCOc2ccc3ncccc3c2)C=CC(C)=CC1CO (single isomer, unassigned) [Compound T]	>12.5	6.25	>12.5	12.5	>12.5	>12.5	>12.5	>12.5	1.56	6.25	3.12	6.25	>12.5	6.25	>12.5
CCC1OC(=O)CC(O)C(C)C(OC2OC(C)C(O)C(N(C)C)C2O)C(CCN2CC(C)CC(C)C2)CC(C)C(=NOCCOc2ccccc2)C=CC(C)=CC1COC1OC(C)C(O)C(OC)C1OC (stereo not drawn) [Compound O]	>12.5	0.20	0.78	0.39	>12.5	>12.5	>12.5	0.39	0.39	0.78	0.39	1.56	6.25	0.78	12.5
CCC1OC(=O)CC(O)C(C)C(OC2OC(C)C(O)C(N(C)C)C2O)C(CC=O)CC(C)C(=NOCC=Cc2cnc3ccccc3c2)C=CC(C)=CC1CO (single isomer, unassigned) [Compound G]	>12.5	0.20	0.78	0.78	>12.5	>12.5	>12.5	0.39	0.025	0.025	0.025	0.049	>12.5	0.049	>12.5
CCC1OC(=O)CC(O)C(C)C(OC2OC(C)C(O)C(N(C)C)C2O)C(CCN2CC(C)CC(C)C2)CC(C)C(=NOCc2ccc(F)cc2)C=CC(C)=CC1COC1OC(C)C(O)C(OC)C1OC (single isomer, unassigned) [Compound P]	>12.5	0.39	6.25	0.78	>12.5	>12.5	>12.5	0.78	0.39	0.78	0.78	3.12	6.25	3.12	12.5
CCC1OC(=O)CC(O)C(C)C(OC2OC(C)C(O)C(N(C)C)C2O)C(CCN2CC(C)CC(C)C2)CC(C)C(=NOCCCCOc2ccc3ncccc3c2)C=CC(C)=CC1COC1OC(C)C(O)C(OC)C1OC (single isomer, unassigned) [Compound M]	>12.5	0.78	1.56	1.56	>12.5	>12.5	>12.5	1.56	0.01	0.01	0.01	1.56	6.25	1.56	>12.5
CC[C@H]1OC(=O)C[C@@H](O)[C@H](C)[C@@H](O[C@@H]2O[C@H](C)[C@@H](O)[C@H](N(C)C)[C@H]2O)[C@@H](CCN2C[C@H](C)C[C@H](C)C2)C[C@@H](C)C(=O)/C=C/C(C)=C/[C@@H]1CO[C@@H]1O[C@H](C)[C@@H](O)[C@@H](OC)[C@H]1OC [Tilm, tilmicosin, reference compound]	>12.5	0.098	0.39	0.20	>12.5	>12.5	>12.5	0.098	0.39	1.56	0.78	0.78	6.25	1.56	>12.5
CCC1OC(=O)CC(O)C(C)C(OC2OC(C)C(O)C(N(C)C)C2O)C(CCN2CC(C)CC(C)C2)CC(C)C(=NOCCCCOc2ccc3ncccc3c2)C=CC(C)=CC1COC1OC(C)C(O)C(OC)C1OC (single isomer, unassigned) [Compound N]	>12.5	0.78	1.56	3.12	>12.5	>12.5	>12.5	3.12	0.025	0.098	0.049	1.56	6.25	0.78	>12.5
CCC1OC(=O)CC(O)C(C)C(OC2OC(C)C(O)C(N(C)C)C2O)C(CC=O)CC(C)C(=NOCCCOc2ccc3ncccc3c2)C=CC(C)=CC1COC1OC(C)C(O)C(OC)C1OC (single isomer, unassigned) [Compound BB]	>12.5	0.2	0.78	0.39	>12.5	>12.5	>12.5	0.39	0.025	0.049	0.049	0.049	0.025	0.025	>12.5
